The source of these data is patent US20100152291A1, “PRODUCTION METHOD OF CAPSINOID BY DEHYDRATING CONDENSATION, STABILIZING METHOD OF CAPSINOID, AND CAPSINOID COMPOSITION” (AJINOMOTO CO., INC., priority 2005, published 2010).

The nature of data set [1]: Stability of capsinoid containing fatty acid, preserved in hexane at 5° C., purity by HPLC. The format is physicochemical. The method, then: For example, dihydrocapsiate was synthesized using a small excess of fatty acid, and dihydrocapsiate obtained by preparatively separating together with the excess fatty acid remaining in about 2 wt % relative to dihydrocapsiate was analyzed by HPLC.
(§1) The HPLC measurement conditions of capsinoid are as follows. HPLC conditions: column: Inertsil C8 3 u μm (diameter 4.0 mm×100 mm) eluent: A mixed solvent of eluents A, B shown below and a buffer was eluted by gradient elution method. […]
(§2) eluent A: CH3CN:buffer=80:20 eluent B: CH3CN:buffer=0:100 […]
(§3) temperature: room temperature
Capsiate obtained in the same manner as in Example 5, which contained 3.2 wt % of fatty acid, was analyzed by HPLC to find the purity of 97.8 area %. This capsiate was preserved in a hexane solvent at 5° C. for 30 days and analyzed by HPLC.
Dihydrocapsiate obtained in the same manner as in Example 15, which contained 2.0 wt % of fatty acid, was analyzed by HPLC to find 99.2 area %. This dihydrocapsiate was preserved in a hexane solvent at 5° C. for 30 days and analyzed by HPLC.

The nature of data set [2]: Stability of vanillyl decanoate in acetonitrile with or without decanoic acid, purity by HPLC. It is filed as physicochemical.
Text: When ester compound (3) is separated and purified by column chromatography, fatty acid (1) present in excess in the reaction mixture has an Rf value similar to that of ester compound (3); therefore, the separation and purification of ester compound (3) is associated with difficulty. […] For example, when vanillyl decanoate was synthesized from decanoic acid and vanillyl alcohol, separated and purified from decanoic acid by silica gel column chromatography to give pure vanillyl decanoate, which was dissolved in acetonitrile and analyzed by HPLC. As a result, the purity of vanillyl decanoate was 95.6 area %. However, when the sample was reanalyzed 62 hours later, the purity decreased to 82.0 area %. […] Vanillyl decanoate is considered to have become unstable upon separation from decanoic acid. Therefore, fatty acid (1), difficult to be separated from ester compound (3), is preferably left coexisted rather than being separated, from the aspect of stability of ester compound (3).
For example, when 9.1 wt % of decanoic acid was added, in acetonitrile, to pure vanillyl decanoate separated from decanoic acid, the purity of vanillyl decanoate was 97.6 area % even after 19.5 hours and the purity was maintained.
as §1, §2, §3
Vanillyl decanoate was separately synthesized from vanillyl alcohol and decanoic acid, and its stability was examined. Decanoic acid was separated by silica gel column chromatography, and the purified product was dissolved in acetonitrile and analyzed by […]
HPLC to find 95.6 area %. When the sample was reanalyzed 62 hours later, the purity decreased to 82.0 area %, and vanillyl decanoate was confirmed to have been decomposed.
Decanoic acid was separated by silica gel column chromatography, and the purified product, vanillyl decanoate, was dissolved in acetonitrile and analyzed by HPLC 9 hours later to find 90.4 area %. To the acetonitrile solution of the purified product, vanillyl decanoate, was added 9.1 wt % of decanoic acid, and the mixture was analyzed by HPLC 19.5 hours later to find 97.6 area %, showing increase in the purity as compared to the absence of decanoic acid addition. Similarly, 16.7 wt %, 28.7 wt % and 44.8 wt % of decanoic acid was added to vanillyl decanoate to result in higher purities of 98.1 area %, 98.1 area % and 97.9 area % as compared to the absence of decanoic acid addition.

Regarding `COc1cc(COC(=O)CCCC/C=C/C(C)C)ccc1O` [capsiate], the “purity by HPLC” value in data set [1] (containing 3.2 wt % of fatty acid, before preservation) is listed as 97.8 area %; in data set [1] (containing 3.2 wt % of fatty acid, preserved in hexane at 5° C. for 30 days) it was 97.6 area %.
With `COc1cc(COC(=O)CCCCCCC(C)C)ccc1O` [dihydrocapsiate], the “purity by HPLC” value in data set [1] (containing 2.0 wt % of fatty acid, preserved in hexane at 5° C. for 30 days) stood at 99.3 area %. For the same compound, the “time stably preserved without decomposition” value in data set [1] (with about 2 wt % excess fatty acid, in hexane at 5° C.) is given as “at least 30 days”.
Consider `CCCCCCCCCC(=O)OCc1ccc(O)c(OC)c1` [vanillyl decanoate], for which the “purity by HPLC” value was 97.6 area % in data set [2] (acetonitrile solution, 9.1 wt % of decanoic acid added, 19.5 hours later); 98.1 area % in data set [2] (acetonitrile solution, 16.7 wt % of decanoic acid added); 98.1 area % in data set [2] (acetonitrile solution, 28.7 wt % of decanoic acid added); 97.9 area % in data set [2] (acetonitrile solution, 44.8 wt % of decanoic acid added); 95.6 area % in data set [2] (pure product separated from decanoic acid, dissolved in acetonitrile, first analysis); 82.0 area % in data set [2] (pure product separated from decanoic acid, in acetonitrile, reanalyzed 62 hours later). Further, in data set [2] (purified product without decanoic acid, in acetonitrile, 9 hours later), the “purity by HPLC” value amounted to 90.4 area %.
